Experimental findings from BindingDB's records for doi:10.1016/j.chembiol.2007.10.011 (Vanderbilt University, 2007) are described below.

One may read the Kd as a measure of binding affinity in units of concentration. Higher therefore signals weaker binding.

Structures are written as SMILES. Where “and” joins values, the source holds several entries; their conditions need not be identical. Equal values may be shown once.

Experiment [1] concerns the target Lanosterol 14-alpha-demethylase (Trypanosoma brucei brucei (strain 927/4 GUTat10.1), UniProt Q385E8). The experiment is described as follows: Inhibition Assay. The settings on record: pH 6.
Experiment [2] deals with Sterol 14-alpha demethylase (Trypanosoma cruzi (strain CL Brener), UniProt Q7Z1V1). Briefly: Inhibition Assay. The conditions noted are these: pH 6.
Chain of Sterol 14-alpha demethylase (Q7Z1V1 whole entry): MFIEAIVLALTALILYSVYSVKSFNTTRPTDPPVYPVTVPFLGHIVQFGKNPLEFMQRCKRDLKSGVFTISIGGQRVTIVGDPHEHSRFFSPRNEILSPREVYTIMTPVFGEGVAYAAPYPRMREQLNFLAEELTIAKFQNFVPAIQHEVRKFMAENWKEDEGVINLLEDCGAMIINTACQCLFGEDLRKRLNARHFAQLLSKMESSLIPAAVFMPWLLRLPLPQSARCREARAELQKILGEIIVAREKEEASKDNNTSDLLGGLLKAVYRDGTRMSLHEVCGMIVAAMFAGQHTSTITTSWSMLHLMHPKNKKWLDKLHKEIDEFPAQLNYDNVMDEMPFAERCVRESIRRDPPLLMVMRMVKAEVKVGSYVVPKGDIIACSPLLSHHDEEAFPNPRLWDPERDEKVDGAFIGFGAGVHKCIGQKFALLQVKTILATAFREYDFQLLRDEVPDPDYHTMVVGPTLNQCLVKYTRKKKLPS

Chain of Lanosterol 14-alpha-demethylase (Q385E8 whole entry): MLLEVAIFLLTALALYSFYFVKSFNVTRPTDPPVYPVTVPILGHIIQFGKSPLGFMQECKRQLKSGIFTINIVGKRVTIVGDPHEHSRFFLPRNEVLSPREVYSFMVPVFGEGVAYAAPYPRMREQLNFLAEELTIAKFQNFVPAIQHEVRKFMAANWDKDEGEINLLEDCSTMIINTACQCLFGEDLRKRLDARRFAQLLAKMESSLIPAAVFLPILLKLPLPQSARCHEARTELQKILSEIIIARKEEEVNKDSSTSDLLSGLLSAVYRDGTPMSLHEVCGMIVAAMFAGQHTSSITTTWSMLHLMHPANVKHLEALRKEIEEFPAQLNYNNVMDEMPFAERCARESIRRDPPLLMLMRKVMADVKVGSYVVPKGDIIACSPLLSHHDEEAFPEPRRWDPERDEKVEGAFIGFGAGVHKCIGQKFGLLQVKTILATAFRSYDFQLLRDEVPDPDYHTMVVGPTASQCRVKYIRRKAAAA

As to `O=C(NC(Cn1ccnc1)c1ccccc1)c1ccc(-c2ccc(Cl)cc2)cc1` (centres undefined) [Azole, 4], the dissociation constant Kd was 50 nM in experiment [1] and 70 nM in experiment [2].

As for `O=C(NC(Cn1ccnc1)c1ccc(Cl)cn1)c1ccc(-c2ccc(Cl)cc2)cc1` (centres undefined) [Azole, 20], the equilibrium dissociation constant (Kd) in experiment [2] came out at 70 nM.

Regarding `CCCCOc1ccc(-c2ccc(C(=O)NC(Cn3ccnc3)c3ccc(Cl)cn3)cc2)cc1` (centres undefined) [Azole, 17], the Kd in experiment [1] is 80 nM; in experiment [2], 110 nM.

Take `O=C(NCC(c1ccccc1)n1ccnc1)c1csc(-c2ccc(Cl)cc2)c1` (centres undefined) [Azole, 8]: the results for the Kd in experiment [1] and in experiment [2] were 210 nM and 110 nM, respectively.

`O=C(NC(Cn1ccnc1)c1ccc(Cl)cc1Cl)c1nnc(-c2ccccc2)o1` (centres undefined) [Azole, 3]: the equilibrium dissociation constant (Kd) in experiment [1] and in experiment [2] was 140 nM in each case.

Consider `O=C(NCC(c1ccc(Cl)cc1)(c1ccc(Cl)cc1)n1ccnc1)c1ccccc1` [Azole, 1], for which the figures for the equilibrium dissociation constant (Kd) in experiment [1] and in experiment [2] were 1010 nM and 320 nM, respectively.

For `COc1cccc(Sc2ccc(C(=O)NCC(c3ccccc3)n3ccnc3)cc2)c1` (centres undefined) [Azole, 9], the figures for the dissociation constant Kd in experiment [1] and in experiment [2] were 70 nM and 90 nM, respectively.

In the case of `CC(=O)N1CCN(c2ccc(OC[C@H]3CO[C@](Cn4ccnc4)(c4ccc(Cl)cc4Cl)O3)cc2)CC1` [24F2-1,25(OH)D3], the dissociation constant Kd in experiment [1] came out at 2300 nM.

Regarding `O=C(NCC(c1ccccc1)n1ccnc1)c1cccc(Sc2ccccc2)c1` (centres undefined) [Azole, 10], the dissociation constant Kd in experiment [1] and in experiment [2] was 50 nM throughout.

As for `O=C(NC(Cn1ccnc1)c1ccc(Cl)cn1)c1ccc(-c2ccc(Cl)cc2)cc1` (centres undefined) [Azole, 19], the dissociation constant (Kd) in experiment [1] amounted to 90 nM; in experiment [2] it was 60 nM.

In the case of `COc1ccc(CC(CNC(=O)c2ccc(-c3ccc(Cl)cc3)cc2)n2ccnc2)cc1` (centres undefined) [Azole, 11], the Kd came out at 710 nM in experiment [1] and 110 nM in experiment [2].

Take `O=C(NCC(c1ccccc1)n1ccnc1)c1cnc[nH]1` (centres undefined) [Azole, 5]: the dissociation constant Kd is 1900 nM in experiment [1] and 1200 nM in experiment [2].

For the compound `O=C(NC(Cn1ccnc1)c1ccc(Cl)cc1Cl)c1nnc(-c2ccccc2)o1` (centres undefined) [Azole, 2], the Kd in experiment [1] is 90 nM and 100 nM.

In the case of `O=C(NCC(c1ccccc1)n1ccnc1)c1ccc(-c2ccc(Cl)cc2)cc1` (centres undefined) [Azole, 12], the Kd came out at 40 nM in experiment [1] and 70 nM in experiment [2].

Turning to `O=C(NCC(c1ccccc1)n1ccnc1)c1ccc2sc3ccccc3c(=O)c2c1` (centres undefined) [Azole, 7], the Kd in experiment [1] was determined as 310 nM; in experiment [2], 380 nM.

Turning to `O=C(NCC(c1ccccc1)n1ccnc1)c1cccc2c1oc1ccccc12` (centres undefined) [Azole, 6], the figures for the Kd in experiment [1] and in experiment [2] were 210 nM and 130 nM, respectively.
